Measured values as given in patent US20150141460A1, “Anti-inflammatory Compositions” (Cambridge Enterprise Limited, priority 2007, published 2015).
Entries after “also recorded” stand apart in the source; their conditions may differ.

Tests used:
[1] = In vitro stability (hydrolysis of C-Cl bond) in physiological saline, LC/MS; type: physicochemical; settings: after 24 hours at 37° C.
Procedure: (§1) An obvious concern related to this molecule was the stability of the C—Cl bond. We therefore examined the stability of (VIII) in vitro, both in physiological saline and in a rat liver microsome preparation. Encouragingly, less than 2% of (VIII) had undergone hydrolysis (determined by LC/MS, with dual ion detection of the hydrolysis product (V) and the parent compound (VIII)) even after 24 hours at 37° C. […] As a result, we conclude that compound (VIII) has similar in vitro stability and intrinsic clearance to (I′).

[2] = Stability in rat liver microsome preparation; type: in vitro ADME; settings: 1 μM, 1 hour at 37° C.
Procedure: as §1

[3] = Pharmacokinetics following a single dose in rat (1 mg/kg iv, 3 mg/kg oral), LC-MS/MS, one-compartment model; type: in vivo; settings: for bioavailability: 3 mg/kg oral in 1% CMC vs 1 mg/kg iv, one-compartment model, read-out: F (%) oral bioavailability; for Vd: read-out: Vss (L/kg) volume of distribution; for half-life: intravenous dosing 1 mg/kg, read-out: t1/2 (mins) dominant plasma half-life
Procedure: Compounds were administered as a single dose (either 1 mg/kg bodyweight in 5% DMSO via the intravenous route or 3 mg/kg in 1% carboxymethylcellulose via the oral route) to three adult rats (using different rats for each compound and each route of administration).
Blood was then sampled at various time points (including just prior to dose administration) out to 24 hrs post dose, and the level of the various compounds was assessed using a validated LC-MS/MS assay. Briefly, 3-5 μl of the deproteinised sample was applied to a Waters Atlantis (C18 20×2.1 mm, 3 μm bead size) reverse phase chromatography column equilibrated in 0.1% formic acid in 95:5 water:actetonitrile. Over 3.5 minutes bound material was gradient eluted reaching 0.1% formic acid in 5:95 water:acetonitrile, followed by a step gradient back to 0.1% formic acid in 95:5 water:acetonitrile. The column eluent was then directed to an Applied Biosystems API 4000/3200 QTrap MS/MS mass spectrometer, with a TurboIonspray™ ion source operating in positive ion mode. The interface temperature was set at 650° C., with a 40 ms dwell time for each MRM transition, monitoring the following ions:
The internal standard in each determination was the related compound (S)-3-(2′,2′-dimethyl-propanoylamino)-caprolactam, which was spiked into the sample prior to deproteinization. The lower limit of quantitation (LLOQ) for this assay was 2.4 ng/ml for each compound except (I′), where it was 38.1 ng/ml.
Following LC-MS/MS analysis of each collected sample, the pharmacokinetic disposition of the compound was modelled using Kinetica software, a well known software package for such applications.
Compounds (VI) and (VII) were subject to pharmacokinetic analysis in rat using exactly the same protocols previous applied for compounds (I) through (V) in example 1.
We therefore subjected (VIII) to pharmacokinetic analysis in rat using exactly the same protocols previous applied for compounds (I′) through (VII) in examples 1 and 7.
The isolated (R)-enantiomer of (I) was therefore synthesised (exactly as described herein for the isolated (S)-enantiomer, but replacing the (S)-ornithine starting material with commercially available (R)-ornithine of high stereochemical purity), and the PK properties of this agent, in rat, was determined using the identical methodology described above (see Examples 1, 7 and 8).

[4] = Identification of the primary metabolites in pooled rat urine by LC-MS-MS; type: in vivo; settings: single oral dose 3 mg/kg in 1% CMC, pooled urine over 24 hrs, qualitative, 3 mg/kg
Procedure: Urine was collected from rats exposed to a single oral dose (3 mg/kg in 1% CMC) of each compound over a 24 hour period in metabolic cages. The pooled urine sample was then subjected to full scan mass spectral analysis, using the same LC-MS conditions as described in example 1 above. Further MS-MS analysis of the product ions was then performed, and likely fragmentations/re-arrangements assigned from the publicly available Metabolite ID database.
For the major metabolites, the assigned structures were confirmed by synthesis of authentic samples, using methods well known in the art, which were subject to LC-MS-MS analysis under the same conditions as the urine samples.
Note that metabolite ID studies provide only qualitative estimates of the relative amounts of the different metabolites present, and separately validated assays with appropriate internal standards would be required to quantitate each metabolite species.

NK2 receptor = target: T1, NK2 receptor (Homo sapiens, UniProt P21452); assay: CEREP panel binding, NK2 receptor; settings: estimated from single concentration 10 μM; read-out: estimated ED50 for interaction with the NK2 receptor
T1 construct: purchased CEREP (screening panel)
T1 sequence (P21452 1-398): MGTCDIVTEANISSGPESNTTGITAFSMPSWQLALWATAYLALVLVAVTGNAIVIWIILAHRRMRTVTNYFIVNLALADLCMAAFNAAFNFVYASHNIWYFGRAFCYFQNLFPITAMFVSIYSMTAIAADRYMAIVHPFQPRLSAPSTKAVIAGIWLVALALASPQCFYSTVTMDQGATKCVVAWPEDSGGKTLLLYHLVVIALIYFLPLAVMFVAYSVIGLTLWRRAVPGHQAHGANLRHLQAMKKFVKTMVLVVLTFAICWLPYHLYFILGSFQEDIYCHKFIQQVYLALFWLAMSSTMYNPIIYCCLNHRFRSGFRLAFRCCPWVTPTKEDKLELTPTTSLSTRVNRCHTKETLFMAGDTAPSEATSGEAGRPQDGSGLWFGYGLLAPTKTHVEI
Procedure: FIGS. 5A-5F show the profile of cross-reactivity for each of the five compounds (I′) to (V) (FIG. 5A: (II); FIG. 5B: (III); FIG. 5C: (V); FIG. 5D: (I′) and FIG. 5E: (IV)) against a panel of 75 different receptors that compose the CEREP panel (see text). The compounds were tested at a single concentration (10 μM), and the inhibition of binding (Y-axis of each histogram) for a known ligand to each of the 75 receptors is reported (−100% therefore represents a 2-fold increase in binding of the specific ligand in the presence of the test compound). All reactions were performed in duplicate, and the bars represent the mean (no estimate of the replicate error is shown to simplify the graphs). Only a 50% or greater inhibition (or stimulation) of binding (representing an ED50 below 10 μM for the interaction of the test compound with the particular receptor) was considered statistically and biologically significant in this screening assay. For the five compounds tested here, only one interaction (that of compound (II) with the NK2 receptor, marked by the arrowhead in FIG. 5A) was considered potentially significant, although even this interaction was weak (estimated ED50 5-10 μM).
Binding to non-target receptors was assessed using similar protocols, exploiting specific radioligands for each receptor which are well known in the art. […]

[5] = test system: S. Typhinurium (TA102, TA98 and TA100); assay: AMES test, revertant colony formation; type: cell-based; settings: at 5 mg/ml
Procedure: The five compounds were subjected to a standard AMES test to assess likely genotoxicity. Three His-auxotroph strains of S. Typhinurium (TA102, TA98 and TA100) were treated with each of the compounds at 5 concentrations (up to 5 mg/ml) in the presence and absence of S9 rat liver microsomal metabolising system. The number of revertant colonies was then determined by plating on trace-His minimal media.

[6] = plasma, averaged across three rats
[7] = plasma, iv, 1 mg/kg, averaged across three rats

SMILES	hydrolysis to (V) [1]	degradation compared to a no NADPH blank run [2]	clearance, fold higher than (I′) [3]	oral bioavailability [3]	level of analyte in plasma following oral dosing ([3]; all time-points, limit of quantitation ˜2 ng/ml)	AUC(0-t) ([3]; blood, single oral dose 3 mg/kg in 1% CMC, Tables 7-9, read-out: Exposure (min · ng/ml), oral exposure AUC 0-t (converted))	bioavailability [3, 6]	clearance [3, 7]	Vd [3, 7]	half-life [3, 7]	major metabolites / route of metabolism detected in urine [4]	IC50 (NK2 receptor)	effect on bacterial lawn growth [5]
O=C1NCCCC[C@@H]1NC(=O)C12CC3CC(CC(Cl)(C3)C1)C2 [(VIII)]	less than 2%	less than 10%	more than 20 fold	no detectable oral bioavailability whatsoever	below the limit of quantitation	< 1.67 ng·h/mL	< 1%	62.8 mL/min/kg	0.7 L/kg	15 min	–	–	–
O=C1NCCCC[C@@H]1NC(=O)C12CC3CC(CC(C3)C1)C2 [Compound (II), 3-(adamantane-1-carbonylamino)-caprolactam]	–	–	–	–	–	–	< 1%	–	0.8 L/kg	16 min	cytochrome P450-mediated hydroxylation; also recorded: rapidly converted to (V) in vivo	5 to 10 µM	inhibition of bacterial lawn growth
